According to patent US10897901B2, “Herbicidal composition” (FMC Corporation, priority 2007, dated 2021):

Tests used:
Format in all cases: in vivo
[1] = test system: Field Violet (Viola arvensis); assay: Example 2 post-emergent turf plot test, violet; conditions: 0.57 lb ai/acre
Experimental: (§1) The experimental design used randomized plots with post-emergent treatment and three replications per test trial. The size of each experimental plot was 4 feet by 6 feet. The application of each test composition was performed with pressurized back-pack sprayers, calibrated to spray 200 gallons per acre. Test compositions containing sulfentrazone (DISMISS™ Turf Herbicide), quinclorac, (FACET® 75 DF herbicide) or a mixture of sulfentrazone and quinclorac in a one to three ratio, prepared as described above, were diluted with water to provide the appropriate test rate concentrations.
(§2) The control of weeds was evaluated in each experimental plot from 1 to 27 days after treatment (DAT) of each test rate. The results, shown as an average of the replications, were compared with results observed in untreated control plots in the same trials.

[2] = test system: Yellow Nutsedge (Cyperus esculentus); assay: Example 2 post-emergent turf plot test, nutsedge; conditions: 0.57 lb ai/acre
Experimental: as §1, §2

[3] = test system: White Clover (Trifolium repens); assay: Example 1 post-emergent turf plot test, clover; conditions: 0.57 lb ai/acre
Experimental: as §1, with “quniclorac,” for “quinclorac,”, “1:3” for “one to three”
The control of weeds was evaluated in each experimental plot from 7 to 41 days after treatment (DAT) of each test rate. The results, shown as an average of the replications, were compared with results observed in untreated control plots in the same trials.

[4] = test system: Red River crabgrass (Digitaria ciliaris); assay: Example 3 post-emergence greenhouse pot test, crabgrass
Experimental: (§3) Test compositions containing sulfentrazone (DISMISS™ Turf Herbicide), quniclorac, (DRIVE® 75 DF Herbicide) or mixture of sulfentrazone and quinclorac in a three to one ratio, prepared as described above, were diluted with water to provide the appropriate test rate concentrations. A nonionic surfactant (0.25%) was added to each test solution.
(§4) The test weeds include Red River crabgrass (Digitaria ciliaris) and yellow nutsedge (Cyperus esculentusi).
(§5) For post-emergence testing, three disposable 3 inch square pots for each rate of application of each herbicide were filled with a soil, comprised of peat moss, vermiculite, bark ash, pine bark, limestone and a wetting agent, to which 8 to 10 seeds were planted. The pots were placed in a greenhouse and watered daily, thus allowing the seeds to germinate and the foliage to develop.
(§6) Pots designated for treatment were placed on a conveyor belt and the conveyor belt fed under a spray nozzle mounted about ten inches above the foliage. The spray of herbicidal solution was commenced and once stabilized; the pots were passed under the spray at a speed to receive a coverage equivalent of 30 gallons per acre. The application rates are those shown in Table 3 below for the individual herbicidal solutions and the mixture of sulfentrazone and quinclorac. The post-emergence pots were immediately placed in the green-house and not watered until 24 hours after treatment with the test solution. Thereafter they were regularly watered at ground level. The control of weeds was evaluated in each experimental test from 1 to 22 days after treatment (DAT). The results, shown as an average of the replications, were compared with results observed in untreated control pots in the same tests.
(§7) Percent control was determined by a method similar to the 0 to 100 rating system disclosed in “Research Methods in Weed Science,” 2nd ed., B. Truelove, Ed.; Southern Weed Science Society; Auburn University, Auburn, Ala., 1977.

[5] = test system: yellow nutsedge (Cyperus esculentusi); assay: Example 3 post-emergence greenhouse pot test, nutsedge
Experimental: as §3, §4, §5, §6, §7

## Cc1nn(-c2cc(NS(C)(=O)=O)c(Cl)cc2Cl)c(=O)n1C(F)F [A, N-[2,4-dichloro-5-[4-(difluoromethyl)-4,5-dihydro-3-methyl-5-oxo-1H-1,2,4-triazol-1-yl]phenyl]methanesulfonamide]
[1]; 7 DAT
  Percent Control: 66%
[1]; 14 DAT
  Percent Control: 78%
[1]; 21 DAT
  Percent Control: 69%
[2]; 7 DAT
  Percent Control: 100%
[2]; 14 DAT
  Percent Control: 100%
[2]; 21 DAT
  Percent Control: 100%
[3]; 7 DAT
  Percent Control: 59%
[3]; 14 DAT
  Percent Control: 63%
[3]; 21 DAT
  Percent Control: 59%
[3]; 28 DAT
  Percent Control: 52%
[4]; 1-2 leaf stage, 11 days old, 0.125 lb ai/acre, 1 DAT
  Percent Control: 50%
[4]; 1-2 leaf stage, 11 days old, 0.125 lb ai/acre, 3 DAT
  Percent Control: 60%
[4]; 1-2 leaf stage, 11 days old, 0.125 lb ai/acre, 7 DAT
  Percent Control: 50%
[4]; 1-2 leaf stage, 11 days old, 0.125 lb ai/acre, 14 DAT
  Percent Control: 40%
[4]; 1-2 leaf stage, 11 days old, 0.125 lb ai/acre, 21 DAT
  Percent Control: 30%
[4]; 1-2 leaf stage, 11 days old, 0.25 lb ai/acre, 1 DAT
  Percent Control: 60%
[4]; 1-2 leaf stage, 11 days old, 0.25 lb ai/acre, 3 DAT
  Percent Control: 70%
[4]; 1-2 leaf stage, 11 days old, 0.25 lb ai/acre, 7 DAT
  Percent Control: 50%
[4]; 1-2 leaf stage, 11 days old, 0.25 lb ai/acre, 14 DAT
  Percent Control: 20%
[4]; 1-2 leaf stage, 11 days old, 0.25 lb ai/acre, 21 DAT
  Percent Control: 5%
[4]; 1-2 leaf stage, 11 days old, 0.375 lb ai/acre, 1 DAT
  Percent Control: 50%
[4]; 1-2 leaf stage, 11 days old, 0.375 lb ai/acre, 3 DAT
  Percent Control: 70%
[4]; 1-2 leaf stage, 11 days old, 0.375 lb ai/acre, 7 DAT
  Percent Control: 50%
[4]; 1-2 leaf stage, 11 days old, 0.375 lb ai/acre, 14 DAT
  Percent Control: 20%
[4]; 1-2 leaf stage, 11 days old, 0.375 lb ai/acre, 21 DAT
  Percent Control: 10%
[4]; 3-4 leaf stage, 1-2 tillers, 14 days old, 0.125 lb ai/acre, 1 DAT
  Percent Control: 25%
[4]; 3-4 leaf stage, 1-2 tillers, 14 days old, 0.125 lb ai/acre, 3 DAT
  Percent Control: 25%
[4]; 3-4 leaf stage, 1-2 tillers, 14 days old, 0.125 lb ai/acre, 7 DAT
  Percent Control: 30%
[4]; 3-4 leaf stage, 1-2 tillers, 14 days old, 0.125 lb ai/acre, 14 DAT
  Percent Control: 10%
[4]; 3-4 leaf stage, 1-2 tillers, 14 days old, 0.125 lb ai/acre, 21 DAT
  Percent Control: 5%
[4]; 3-4 leaf stage, 1-2 tillers, 14 days old, 0.25 lb ai/acre, 1 DAT
  Percent Control: 25%
[4]; 3-4 leaf stage, 1-2 tillers, 14 days old, 0.25 lb ai/acre, 3 DAT
  Percent Control: 25%
[4]; 3-4 leaf stage, 1-2 tillers, 14 days old, 0.25 lb ai/acre, 7 DAT
  Percent Control: 30%
[4]; 3-4 leaf stage, 1-2 tillers, 14 days old, 0.25 lb ai/acre, 14 DAT
  Percent Control: 12%
[4]; 3-4 leaf stage, 1-2 tillers, 14 days old, 0.25 lb ai/acre, 21 DAT
  Percent Control: 5%
[4]; 3-4 leaf stage, 1-2 tillers, 14 days old, 0.375 lb ai/acre, 1 DAT
  Percent Control: 20%
[4]; 3-4 leaf stage, 1-2 tillers, 14 days old, 0.375 lb ai/acre, 3 DAT
  Percent Control: 20%
[4]; 3-4 leaf stage, 1-2 tillers, 14 days old, 0.375 lb ai/acre, 7 DAT
  Percent Control: 22%
[4]; 3-4 leaf stage, 1-2 tillers, 14 days old, 0.375 lb ai/acre, 14 DAT
  Percent Control: 0%
[4]; 3-4 leaf stage, 1-2 tillers, 14 days old, 0.375 lb ai/acre, 21 DAT
  Percent Control: 0%
[5]; 1-5 leaf stage, 7 days old, 0.125 lb ai/acre, 1 DAT
  Percent Control: 50%
[5]; 1-5 leaf stage, 7 days old, 0.125 lb ai/acre, 3 DAT
  Percent Control: 50%
[5]; 1-5 leaf stage, 7 days old, 0.125 lb ai/acre, 7 DAT
  Percent Control: 63%
[5]; 1-5 leaf stage, 7 days old, 0.125 lb ai/acre, 14 DAT
  Percent Control: 70%
[5]; 1-5 leaf stage, 7 days old, 0.125 lb ai/acre, 21 DAT
  Percent Control: 67%
[5]; 1-5 leaf stage, 7 days old, 0.25 lb ai/acre, 1 DAT
  Percent Control: 70%
[5]; 1-5 leaf stage, 7 days old, 0.25 lb ai/acre, 3 DAT
  Percent Control: 85%
[5]; 1-5 leaf stage, 7 days old, 0.25 lb ai/acre, 7 DAT
  Percent Control: 77%
[5]; 1-5 leaf stage, 7 days old, 0.25 lb ai/acre, 14 DAT
  Percent Control: 68%
[5]; 1-5 leaf stage, 7 days old, 0.25 lb ai/acre, 21 DAT
  Percent Control: 50%
[5]; 1-5 leaf stage, 7 days old, 0.375 lb ai/acre, 1 DAT
  Percent Control: 75%
[5]; 1-5 leaf stage, 7 days old, 0.375 lb ai/acre, 3 DAT
  Percent Control: 91%
[5]; 1-5 leaf stage, 7 days old, 0.375 lb ai/acre, 7 DAT
  Percent Control: 95%
[5]; 1-5 leaf stage, 7 days old, 0.375 lb ai/acre, 14 DAT
  Percent Control: 73%
[5]; 1-5 leaf stage, 7 days old, 0.375 lb ai/acre, 21 DAT
  Percent Control: 70%
[5]; 5-7 leaves, cut to 6 cm tall, 28 days old, 0.125 lb ai/acre, 1 DAT
  Percent Control: 0%
[5]; 5-7 leaves, cut to 6 cm tall, 28 days old, 0.125 lb ai/acre, 3 DAT
  Percent Control: 80%
[5]; 5-7 leaves, cut to 6 cm tall, 28 days old, 0.125 lb ai/acre, 7 DAT
  Percent Control: 85%
[5]; 5-7 leaves, cut to 6 cm tall, 28 days old, 0.125 lb ai/acre, 14 DAT
  Percent Control: 70%
[5]; 5-7 leaves, cut to 6 cm tall, 28 days old, 0.125 lb ai/acre, 21 DAT
  Percent Control: 60%
[5]; 5-7 leaves, cut to 6 cm tall, 28 days old, 0.25 lb ai/acre, 1 DAT
  Percent Control: 0%
[5]; 5-7 leaves, cut to 6 cm tall, 28 days old, 0.25 lb ai/acre, 3 DAT
  Percent Control: 75%
[5]; 5-7 leaves, cut to 6 cm tall, 28 days old, 0.25 lb ai/acre, 7 DAT
  Percent Control: 80%
[5]; 5-7 leaves, cut to 6 cm tall, 28 days old, 0.25 lb ai/acre, 14 DAT
  Percent Control: 80%
[5]; 5-7 leaves, cut to 6 cm tall, 28 days old, 0.25 lb ai/acre, 21 DAT
  Percent Control: 90%
[5]; 5-7 leaves, cut to 6 cm tall, 28 days old, 0.375 lb ai/acre, 1 DAT
  Percent Control: 0%
[5]; 5-7 leaves, cut to 6 cm tall, 28 days old, 0.375 lb ai/acre, 3 DAT
  Percent Control: 90%
[5]; 5-7 leaves, cut to 6 cm tall, 28 days old, 0.375 lb ai/acre, 7 DAT
  Percent Control: 90%
[5]; 5-7 leaves, cut to 6 cm tall, 28 days old, 0.375 lb ai/acre, 14 DAT
  Percent Control: 90%
[5]; 5-7 leaves, cut to 6 cm tall, 28 days old, 0.375 lb ai/acre, 21 DAT
  Percent Control: 90%
